Laboratory results: PMC6362118, “Pharmacophore-guided discovery of CDC25 inhibitors causing cell cycle arrest and tumor regression” (Scientific Reports, 2019)

Columns and labels:
CDC25C = molecular target: T1, CDC25C (Homo sapiens, UniProt P30307); experiment: Enzymatic assay (OMFP substrate) on recombinant CDC25C; type: biochemical; conditions: mixed-model inhibition equation
T1 construct: GST (pGEX vector) (N); made in house; host or cells: E. coli BL21
From the text: (§1) 34 SUPPLEMENTARY MATERIALS AND METHODS
(§2) 36 Antibodies and chemicals - The following antibodies were used for Western blot:
(§3) 37 Rabbit monoclonal antibodies to CDK1-pThr14 (#2543), CDK1-pTyr15 (#9111), Histone
(§4) 39 Technology (Beverly, MA, USA). Mouse monoclonal antibodies to CDC25A (F-6, sc-
(§5) 41 from Santa Cruz Biotechnology (Santa Cruz, CA, USA). The mouse monoclonal
(§6) 42 antibody MPM2 (05-368) was from Upstate (Lake Placid, NY, USA). The mouse
(§7) 43 monoclonal antibody to the HA tag (HA.11, MMS-101P) was from BioLegend (S. Diego,
(§8) 44 CA, USA). The rabbit polyclonal antibody to PARP-1 (#227244) was obtained from
(§9) 45 Abcam. HRP-conjugated anti-mouse and anti-rabbit secondary antibodies were obtained
(§10) 46 from GE-Healthcare (Otelfingen, Switzerland). HRP-conjugated IgG-k-BP was
(§11) 47 purchased from Santa Cruz Biotechnology (Santa Cruz, CA, USA).
(§12) 48 The following antibodies were used for immunofluorescence on a Zeiss LSM 710
(§13) 49 confocal microscope: mouse monoclonal to beta-catenin (Cl. 14, BD transduction Lab.),
(§14) 50 rabbit polyclonal to lysozyme (A0099, Dako). Secondary antibodies were: Alexa 488 […]
(§15) 70 V-shaped 96 well plates and read at defined intervals on a Molecular Devices
(§16) 71 SpectraMax microplate reader (ex: 490 nm / em: 525 nm). […]
(§17) 72 calculated from Lineweaver-Burk double-reciprocal plots of the data were obtained using […]
(§18) 88 assessed as described 4. Data were plotted with Prism 7® and analyzed by non-linear […]

CDC25B = molecular target: T2, CDC25B (Homo sapiens, UniProt P30305); experiment: Enzymatic assay (OMFP substrate) on recombinant CDC25B; type: biochemical; conditions: mixed-model inhibition equation
T2 construct: GST (pGEX vector) (N); made in house; host or cells: E. coli BL21
T2 sequence (P30305 whole entry): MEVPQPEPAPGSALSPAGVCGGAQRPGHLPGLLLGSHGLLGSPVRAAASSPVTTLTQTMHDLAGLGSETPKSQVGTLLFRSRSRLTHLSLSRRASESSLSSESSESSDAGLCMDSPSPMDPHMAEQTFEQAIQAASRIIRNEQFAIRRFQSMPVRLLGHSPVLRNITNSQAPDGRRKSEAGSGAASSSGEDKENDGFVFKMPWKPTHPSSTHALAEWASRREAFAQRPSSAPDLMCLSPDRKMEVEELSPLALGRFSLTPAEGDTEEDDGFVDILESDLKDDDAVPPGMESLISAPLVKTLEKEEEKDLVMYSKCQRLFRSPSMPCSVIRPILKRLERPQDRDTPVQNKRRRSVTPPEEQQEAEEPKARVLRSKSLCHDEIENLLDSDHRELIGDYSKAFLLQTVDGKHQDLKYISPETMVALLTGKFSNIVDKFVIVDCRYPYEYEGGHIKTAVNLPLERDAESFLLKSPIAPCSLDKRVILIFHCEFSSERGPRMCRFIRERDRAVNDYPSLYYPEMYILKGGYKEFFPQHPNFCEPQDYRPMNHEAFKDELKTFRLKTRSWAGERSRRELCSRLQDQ
From the text: as §1, §2, §3, §4, §5, §6, §7, §8, §9, §10, §11, §12, §13, §14, §15, §16, §17, §18

[1] = system: U2OS Tet-OFF cells expressing HA-CDC25A; experiment: Cell viability of U2OS Tet-OFF cells overexpressing HA-CDC25A; type: cell-based; conditions: grown in the absence of tetracycline (HA-CDC25A induced)
Method: 65 Enzymatic assays - CDC25A, CDC25B and CDC25C were appropriately diluted in 10
66 mM Tris-HCl pH 8.0, 50 mM NaCl and assayed in 20 mM Tris-HCl pH 8.0, 75 mM
67 NaCl, 0.5 mM EGTA, 1 mM DTT, 0.1 mg/ml BSA and defined concentrations of
68 compounds. Reactions were started by addition of the substrate OMFP (0.1 mM). Assays
69 were carried out at room temperature in duplicate or triplicate using transparent-bottom,
as §15
71 SpectraMax microplate reader (ex: 490 nm / em: 525 nm). IC50 and kinetic parameters
72 calculated from Lineweaver-Burk double-reciprocal plots of the data were obtained using
73 GraphPad Prism software.
75 Cell culture - Wild-type HeLa and Kyoto HeLa cells stably expressing mCherry-H2B
76 were maintained in DMEM+L-Glutamine (Gibco, Life Technologies, USA)
77 supplemented with 5% fetal calf serum (FCS) (Gibco) and penicillin-streptomycin (100
78 U/ml - 100 µg/ml) (Gibco). A549 and Colo741 were grown and maintained like HeLa
79 cells but with 10% FCS. HCT116 were maintained in McCoy’s medium supplemented
80 with 10% FCS and penicillin-streptomycin. U2OS-Tet-OFF cells expressing HA-CDC25
81 were grown and maintained in DMEM+L-Glutamine, 10% Tet-free FCS and penicillin- […]
as §18

[2] = system: Apc/K-Ras intestinal organoids; experiment: Growth and differentiation of Apc/K-Ras intestinal organoids; type: cell-based, mouse
Method: Intestinal crypts were isolated from Apc/K-Ras animals bearing Apc^1638N and villin-driven K-Ras^G12V alleles with slight modifications[36] of a previously described method. Briefly, crypts were isolated and purified, embedded in 50 μl matrigel drops (Corning, 356231) and overlaid with 500 μl organoid medium Advanced DMEM/F12 (Life Technologies, 11320-082) containing 2 mM GlutaMAX (Life Technologies, 35050-061), 10 mM HEPES buffer (Sigma, 83264-100ML-F), 0.5 U/ml Penicillin/Streptomycin (Life Technologies, 15070-063), N2 (Life Technologies, 17502-048), B27 (Life Technologies, 12587-010)]. Organoids were expanded for 5 days in growth factor supplemented medium containing 50 ng/ml mEGF (Life Technologies, PMG8041), 100 ng/ml mNoggin (Peprotech, 250–38) and 500 ng/ml hRSPO1 (R&D, 4645-RS-025). EGF and R-spondin were subsequently removed to select for organoids that had lost the wild-type Apc copy. The medium was changed every 2 days. Established mutant lines were passaged every four days by mechanical disruption with a bent P1000 pipette tip.
as §1, §2, §3, §4, §5, §6, §7, §8, §9, §10, §11, §12, §13
50 rabbit polyclonal to lysozyme (A0099, Dako). […]

T1 sequence (P30307 whole entry): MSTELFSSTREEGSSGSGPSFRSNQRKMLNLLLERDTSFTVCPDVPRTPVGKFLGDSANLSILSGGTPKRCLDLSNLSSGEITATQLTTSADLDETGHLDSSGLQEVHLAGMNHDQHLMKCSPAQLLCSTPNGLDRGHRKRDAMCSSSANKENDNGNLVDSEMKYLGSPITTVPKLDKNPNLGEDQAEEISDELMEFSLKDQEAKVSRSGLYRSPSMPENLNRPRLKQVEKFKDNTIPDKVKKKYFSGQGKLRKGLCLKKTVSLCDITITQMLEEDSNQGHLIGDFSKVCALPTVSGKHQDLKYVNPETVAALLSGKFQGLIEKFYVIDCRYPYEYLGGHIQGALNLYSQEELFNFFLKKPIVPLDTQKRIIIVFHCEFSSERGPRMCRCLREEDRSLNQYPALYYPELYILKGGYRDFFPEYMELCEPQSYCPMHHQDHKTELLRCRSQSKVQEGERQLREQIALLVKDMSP

Ki (CDC25C)	Ki (CDC25B)	SMILES	sensitivity of CDC25A overexpressing cells (viability) [1]	expression of lysozyme (differentiation marker), confocal immunofluorescence ([2]; 5 μM)	organoid morphology ([2]; 5 μM, 48 h)	organoid death ([2]; higher doses (data not shown))
850 ± 300 nM	440 ± 100 nM	COc1cccc(SC2=CC(=O)c3cccc(O)c3C2=O)c1 [UPD-795, 2-(3-methoxyphenylthio)-8-hydroxynaphthalene-1,4-dione]				
		O=C1C(c2ccc(O)cc2O)=CC(=O)c2c(O)cccc21 [UPD-176, 5-hydroxy-2-(2,4-dihydroxyphenyl)naphthalene-1,4-dione]	remained sensitive	augmented expression of lysozyme	growing spheroids partially invaginated	massive death
